Test: in vitro
Conditions: human, hela cells, % viability

SMILES	viability at 28.5 h, 10 µM [%]	viability at 28.5 h, 10 µM (bulk resorufin, single well) [%]
COc1ccc(-n2nc(C)c3onc(C)c3c2=O)cc1 [CBK000853]	101	–
C#CCNC(=O)CC[C@H]1CNC(=O)[C@@H]2[C@@H](CCN2Cc2cccs2)N1C [CBK289033]	103	–
CC(C)C(=O)N1CCC[C@@H]2NC(=O)c3ccccc3OCC/C=C/C[C@@H]21 [CBK292064]	101	–
Cc1ccc(C(=O)C2(O)CCN(CCCC(c3ccc(F)cc3)c3ccc(F)cc3)CC2)cc1 [CBK025221C]	90.6	–
CCN(CC)CCN1CCN(c2cc(-c3cccc4ccccc34)ncn2)CC1 [CBK091196]	99.9	–
O=C(c1c(F)cccc1F)N1CCC(O)(c2ccccn2)CC1 [CBK283670]	105	–
Cc1ccccc1NC(=O)c1ccc(Br)o1 [CBK107152]	88.2	–
O=C(O)CCCC(=O)Nc1ccc(Cc2ccncc2)cc1 [CBK300493]	93.1	–
Cc1cc(C)c2c(n1)nn1c(C)c(CCC(=O)O)c(C)nc21 [CBK265892]	98.2	–
O=C(CC1CCCC1)N1CCCC(c2nnc(-c3cccs3)o2)C1 (stereo not shown) [CBK284631]	94.3	–
CN(C)C(=O)CSc1nc2cc(Cl)ccc2c(=O)n1CC1CCCO1 (stereo not shown) [CBK305932]	97.3	–
CCOC(=O)N1CCC(NC(=O)c2cnn3c(C)c(Cc4ccccc4)c(C)nc23)CC1 [CBK160293]	90.7	–
CC(C)CC(=O)N1C[C@H]2CCCN(Cc3ccccn3)[C@H]2C1 [CBK285269]	86.6	–
CC(=O)Nc1nnc(SCC(=O)NCc2ccc3c(c2)OCO3)s1 [CBK287626]	94	–
CCOC(=O)CN1C(=O)S/C(=C/c2cc(C)n(-c3cc(C)ccn3)c2C)C1=O [CBK264731]	95.2	–
CNC(=O)c1cc(S(=O)(=O)N(C2CC2)C2CCc3ccccc32)cn1C (stereo not shown) [CBK305988]	106	–
O=C(CCC(=O)c1ccc(F)cc1)Nc1cccnc1 [CBK266901]	89.4	–
O=C(CSc1ccccn1)Nc1ccc(CN2CCOCC2)cc1 [CBK306072]	91	–
COc1ccc(C(=O)C2=C(O)C(=O)N(CCCN(C)C)C2c2ccncc2)cc1C (stereo not shown) [CBK264871]	102	–
CC1CCc2nc(NC(=O)C3CN(S(=O)(=O)c4ccc(F)cc4)C3)sc2C1 (stereo not shown) [CBK286004]	110	–
Cc1cc(C(=O)NCCO)ccc1Br [CBK175092]	92	–
O=C(C1=Cc2ccccc2OC1)N1CCn2cc(C(F)(F)F)nc2C1 [CBK283913]	103	–

SMILES	viability at 28.5 h, 10 µM [%]	viability at 28.5 h, 10 µM (bulk resorufin, single well) [%]
Cn1cc(CN2C[C@H]3CN(C(=O)C4CCC4)C[C@@]3(C(=O)O)C2)cc1C#N [CBK307105]	101	–
O=C(O)CCC(=O)Nc1ccc(S(=O)(=O)Nc2ccc(I)cc2)cc1 [CBK264866]	99.9	–
CC(Cn1cc(Cl)cn1)C(=O)N1CCN(C)CC1c1ccccc1 (stereo not shown) [CBK282016]	111	–
O=C(O)CSc1nc2c(-c3ccco3)c3c(nc2o1)CCCC3 [CBK269266]	104	–
Clc1ccccc1C1N(Cc2ccccc2)CCN1Cc1ccccc1 [CBK261217]	93.8	–
COC(=O)c1c(NC(=O)C2CC=CCC2C(=O)O)sc2c1CCC(c1ccccc1)C2 (stereo not shown) [CBK263683]	94.8	–
CS(=O)(=O)Nc1nccnc1OC1CCN(CCCO)CC1 [CBK084275]	90.9	–
CC(C)(C)COC(=O)N1CCC(N2CCOc3ccc(-c4ccc(S(C)(=O)=O)cc4)cc3C2)CC1 [CBK169264]	83	–
O=C(CN1CCN(C(c2ccccc2)c2ccccc2)CC1)CN1C(=O)c2ccccc2C1=O [CBK261682]	97.3	–
O=C(c1cccc(F)c1)N1CCCC1c1cc2cccnc2[nH]1 (stereo not shown) [CBK285081]	93.1	–
O=C(Cn1ccc2ccnc(-c3cccs3)c21)NCc1ccncc1 [CBK284734]	86.5	–
COc1ccc(CN2CCN(S(C)(=O)=O)CC2)c(OC)c1OC [CBK074491]	102	–
Cc1ccc2[nH]c(/C(C#N)=C\c3cn(CC(=O)Nc4ccccc4)c4ccccc34)nc2c1 [CBK267612]	105	–
Cc1nn(-c2ccccc2)c(C)c1C1CC(=O)Nc2c1cnn2C(C)C (stereo not shown) [CBK287925]	104	–
Cc1cccc(C)c1NC(=O)CSc1nnc(-c2cccnc2)n1Cc1ccccc1 [CBK265620]	114	–
CN1CCN(c2cc(-c3ccncc3)nc3ccccc23)CC1 [CBK050976B]	89.1	–
COC[C@H](C)Nc1ccc(C(=O)N2CCC(N3CCOCC3)CC2)cn1 [CBK306917]	84.8	–
Cc1n[nH]c(C)c1CCC(=O)N/N=C/c1ccncc1 [CBK262888]	112	–
O=C(c1cccc2[nH]ccc12)N1CCCC2(CCN(Cc3ccccc3)C2)C1 (stereo not shown) [CBK136887]	93.5	–
CCn1cc(C(=O)N2CCC(C(=O)OC)CC2)c(=O)c2ccc(C)nc21 [CBK305848]	110	–
Cc1nc(NS(=O)(=O)c2ccccc2)sc1NC(=O)Nn1cnnc1 [CBK266699]	85.4	–
O=C(Nc1ccccc1)Nc1cnns1 [CBK028557]	–	102

SMILES	viability at 28.5 h, 10 µM [%]	viability at 28.5 h, 10 µM (bulk resorufin, single well) [%]
O=[N+]([O-])c1ccccc1S(=O)(=O)N1CCN(c2ccccc2)CC1 [CBK261755]	85.8	–
O=C(CSc1ncnc2scc(-c3ccc(Cl)cc3)c12)Nc1nsc(-c2ccccc2)n1 [CBK266473]	96.6	–
c1ccc2c(c1)OCC(COc1ccnc(N3CCCN(CC4CCCCC4)CC3)n1)O2 (stereo not shown) [CBK083982]	115	–
CN(c1ccccc1)c1cc(-c2cccc(O)c2)nc2ccnn12 [CBK037121]	91	–
CCNC(=O)N[C@H]1CO[C@H]2[C@@H]1OC[C@@H]2Nc1nccc(-c2ccc(OC)cc2)n1 [CBK289528]	89.3	–
Cc1cc(NC(=O)CN(C)Cc2cnn(-c3ccccc3)c2)on1 [CBK305622]	92.5	–
O=C(Nc1nc(-c2ccc(S(=O)(=O)N3CCCC3)cc2)cs1)C1COc2ccccc2O1 (stereo not shown) [CBK096353]	101	–
CCNC(=O)N1CCC(Oc2cc(C)ccc2F)(C(=O)O)CC1 [CBK307147]	87.9	–
Cc1cc2nc(NCC3CCCO3)c3ccccc3n2n1 (stereo not shown) [CBK305871]	99.6	–
OCCCn1c(-c2ccc(Cl)cc2)cn2c3ccccc3nc12 [CBK262900]	103	–
Cc1cc(COc2nccc(C(F)(F)F)n2)no1 [CBK115800]	88.7	–
CCCOc1ccc(-c2nn(-c3ccccc3)cc2/C=C2\SC(=S)N(CC(=O)O)C2=O)cc1 [CBK264525]	111	–
CC1CCN(Cc2c(-c3cccnc3)[nH]c3cccnc23)CC1 [CBK281494]	98.8	–
O=C1CC(C(=O)N2CCN(C(=O)c3ccco3)CC2)c2ccccc21 (stereo not shown) [CBK144464]	105	–
CC(=O)Nc1ccc(NC(=O)c2cnc(-c3ccc(F)cc3)c(-c3ccco3)c2)cc1 [CBK037977]	98.8	–
COc1ccc(C)cc1N1CCCN(c2cc(C)ccc2OC)C1=O [CBK006937]	84.8	–
c1ccc2c(c1)CCC2Oc1cncc(N2CCNCC2)n1 (stereo not shown) [CBK200005G]	91	–
CCOc1ccc2nc(SCCN3CCOCC3)sc2c1 [CBK005888]	89.6	–
CN(Cc1nc(-c2ccccc2)no1)C(=O)C1CCOC1 (stereo not shown) [CBK306755]	107	–
Cc1cc(C)n(-c2cc(C)c3ccccc3n2)n1 [CBK262358]	81.9	–
COc1ccc(C(=O)C2=C(O)C(=O)N(CCN(C)C)C2c2cccc([N+](=O)[O-])c2)cc1Cl (stereo not shown) [CBK266474]	102	–
Cc1ccc(S(=O)(=O)Nc2ccc(S(=O)(=O)Nc3nccs3)cc2)c([N+](=O)[O-])c1 [CBK267410]	85.9	–

SMILES	viability at 28.5 h, 10 µM [%]	viability at 28.5 h, 10 µM (bulk resorufin, single well) [%]
CC1=[N+]([O-])C2(N)CCc3nonc3C2(O)C1 (stereo not shown) [CBK261513]	87.9	–
CN(C(=O)CN1CSCC1=O)c1nc2c(s1)CC(c1ccccc1)CC2 (stereo not shown) [CBK305526]	91.6	–
O=C(NCCc1c[nH]c2ccccc12)C(=O)Nc1ccncc1 [CBK287754]	101	–
C#CCOc1cccc2oc(CCC)cc(=O)c12 [CBK005628]	87.6	–
CN1CCC(N2CCN(C(=O)C3(c4ccccc4)CCCC3)CC2)CC1 [CBK149096]	99.3	–
CCN1/C(=C/C(=C/c2sc3ccccc3[n+]2CCCS(=O)(=O)[O-])OC)Sc2ccccc21 [CBK278203]	99.7	–
COc1ccc(OC)c(C(=O)N2CCNC(=O)C2Cc2ccc(-c3cccs3)cc2)c1 (stereo not shown) [CBK285803]	111	–
COc1cc(C(=O)Nc2nc3c(C)cccc3s2)cc(OC)c1OC [CBK287302]	98.5	–
O=C(O)C1CC1C(=O)N1CCC2(CC1)OCCc1c2[nH]c2ccccc12 (stereo not shown) [CBK047167]	89.2	–
CC(Oc1ccc(Cl)cc1Cl)C(=O)O/N=C(\N)c1ccccn1 (stereo not shown) [CBK264673]	100	–
COc1ccc(CN2CCC(Cc3ccccc3-c3cccc(F)c3)(C(N)=O)CC2)cc1 [CBK286277]	99.8	–
CCOC(=O)c1cnc(SCc2nc(N)nc(Nc3ccc(C)cc3)n2)nc1N [CBK266292]	115	–
COCC(=O)N1CCC(NC(=O)N(CCc2ccccc2)Cc2ccccc2)CC1 [CBK174877]	102	–
CC1CCc2nn(CCNC(=O)c3ccco3)c(=O)cc2C1 (stereo not shown) [CBK284481]	95.2	–
FC(F)(F)c1cccc(OCc2nnn[nH]2)c1 [CBK269466]	88.4	–
C(=C/c1ccccc1)/C=N/c1ccc2nc(-c3ccc(/N=C/C=C/c4ccccc4)cc3)[nH]c2c1 [CBK261656]	87.9	–
CC(C)CC(CO)Nc1ncnc2ccc(S(C)(=O)=O)cc12 (stereo not shown) [CBK304203]	107	–
Nc1cccc(-c2nc(-c3cccs3)cnc2N)c1 [CBK063923]	94.5	–
CCc1c(C)nc2c(C(=O)NCCOC)cnn2c1C [CBK162143]	93.9	–
NC(=O)c1nnc2ccc(Cl)cc2c1N [CBK026161]	89.9	–
CNS(=O)(=O)c1ccc(CCC(=O)N(C)Cc2cnn(C)c2)cc1 [CBK305712]	84.9	–
CC(=O)N1C[C@H]2CCCN(S(=O)(=O)c3ccc(F)cc3)[C@H]2C1 [CBK285283]	88.8	–

Reference: article PMC12040169 (PLOS Biology, 2025)
